Several values for one entry are separate records, joined by “and”; a condition that tells them apart may be missing. Equal entries are not always repeated.

One test concerns Mushroom tyrosinase. As to the kind of experiment: Tyrosinase inhibition test (mushroom tyrosinase, L-dopa, OD 492 nm). Type of test: biochemical. The note with it: 10 mM L-dopa, 37° C., 30 min, duplicate. The protocol: Ultraviolet (UV) radiation from the sun is the most important external stimulus for melanin formation leading to skin darkening. Reducing melanin formation in the skin may be achieved by inhibiting multiple steps of the melanin biogenesis process. Tyrosinase is the key regulatory enzyme of melanogenesis. Agents that inhibit tyrosinase will reduce melanin synthesis.
1-Hydroxyl 3,5-bis(4′hydroxyl styryl)benzene (0.0001, 0.001, and 0.01% w/v) was tested for tyrosinase inhibition as follows.
Mushroom tyrosinase samples (Sigma, T7755, 10 U/reaction) were treated with the samples of 1-hydroxyl 3,5-bis(4′hydroxyl styryl)benzene and control samples. Reaction was initiated by addition of 10 mM L-dopa (Research Organics, #2111D) at 37° C. Tyrosinase activity was measured by recording light absorption (optical density) at 492 nm after 30 min for both control samples (no exposure to test compound) and test samples that were exposed to the test compound.
Percent Inhibition of Tyrosinase was related to the reduction in absorption at 492 nm (relative to the control) by the following formula: Percent Inhibition of Tyrosinase=[Tcontrol−Tsample/Tcontrol)]*100 where Tcontrol is the tyrosinase activity of the control and Tsample is the tyrosinase activity in the presence of test compound. Samples were tested in duplicate and Percent Inhibition of Tyrosinase was averaged and standard deviation was reported.

Test [1] relates to MelanoDerm skin epidermal equivalent tissues (NHEK and NHM). As to the kind of experiment: Inhibition of pigmentation in skin epidermal equivalent tissues (MatTek MelanoDerm MEL-300-B). Type of test: cell-based, human. The settings on record: measured day 9, vs vehicle-treated control. The protocol: Skin epidermal equivalent tissues obtained from MatTek's MelanoDerm™ System were used as follows. MatTek's MelanoDerm™ System consists of normal, human-derived epidermal keratinocytes (NHEK) and melanocytes (NHM) which have been cultured to form a multilayered, highly differentiated model of the human epidermis. Specifically, MEL-300-B tissues, each 9 mm in diameter were used in the following tests.
1-Hydroxyl 3,5-bis(4′hydroxyl styryl)benzene and its piperazine salt were prepared in an appropriate vehicle and applied topically to the skin model daily. The experiment lasted for eight days. Measurement was taken on day 9.
The Degree of Lightness for each skin model tissue (L-Value) was measured using a spectrophotometer (Konica Minolta CM-2600d). The ΔL (degree of lightness as compared to vehicle-treated control) for each test sample was calculated using following formula: ΔL=L-value of treated sample−L-value of control sample

Test [2] concerns murine melanoma B16(F10) cells. As to the kind of experiment: Inhibition of UV-induced Melanogenesis test. Type of test: cell-based. The note with it: for Percent inhibition of UV-induced melanogenesis (mean ± SD): B16(F10), UVB 200 mJ/cm^2, 24 h post UVB. The method, then: One or more samples of B16(F10) cells were prepared and each pre-treated with a test sample followed by UVB exposure as described below. Upon treatment, UVB stimulated melanogenesis in the cells and test compounds were evaluated based on their ability to inhibit or slow down the rate of melanogenesis. The cells were lysed for protein measurement at 595 nm and melanin content at 470 nm. The potency of the test compounds were determined by comparing the % inhibition achieved by the test compounds against the treated control.
On a first day, murine melanoma B16(F10) cells were seeded in 60 mm plates with a density of ˜1 million cells per plate and incubated for […] at 37° C., 5% CO2. On day 2, the cells with a confluency rate of 90-100% were treated with test compound at a predetermined concentration (e.g. 25 mg/mL) for two hours (for test compound samples only) followed by exposure to UVB 200 mJ/cm^2 (for test samples and treated control). The cells were harvested on day 3 (24 h post UVB irradiation for test samples and treated control) and lysed in protein lysis buffer (50 mM Tris, pH 8, 2 mM EDTA, 150 mM NaCl, and 1% TRITON X 100—a nonionic surfactant purchased from BioRad Cat.#: 161-0407), and centrifuged.
The resulting supernatant was mixed well with a protein dye assay (Bio-rad protein assay reagent) and a spectrophotometer (Molecular Devices VERSAmax) was used to determine the optical density (OD) of the sample at 595 nm, which was recorded as the “protein assay OD.” The cell pellet remaining after removal of the supernatant was dissolved in alkaline DMSO buffer, and the resulting solution was similarly tested using a spectrophotometer for melanin absorbance assay at 470 nm. The absorbance was recorded as the “melanin assay OD.”
Control samples of B16(F10) murine melanoma cells were prepared and harvested as indicated above, but without addition of any test sample and without exposure to UVB (untreated control). Other samples were prepared and harvested as indicated above, but without addition of test sample and exposed to UVB as described below (treated control).
Three samples each of the untreated control, treated control, and each test sample were made and the Melanin OD and Protein OD measured for each. The normalized melanin for each untreated control (3 samples), treated control (3 samples) and test sample (3 samples for each test compound) was calculated via the following equation: Normalized Melanin=melanin assay OD/protein assay OD. The averages of the Normalized Melanin of the untreated controls and treated controls were calculated (sum of the three calculated values/3).
The Induction value of the Control (which can be thought of as the UV-induced increase in melanin, without the benefit of any test sample to reduce melanogensis) was determined by subtracting the average Normalized Melanin of untreated control from the average Normalized Melanin of treated control. Similarly, the Induction value of each test sample (which can be thought of as the amount of additional melanin over and above the baseline of the sample not treated with UV) was then calculated by subtracting average Normalized Melanin of untreated control from the Normalized Melanin of the test sample. The Percent Inhibition for each test sample was then calculated via the equation: Percent Inhibition=100×[(Induction value of Control−Induction value with Test Sample)/Induction value of Control].
The average Percent Inhibition was calculated as the sum of the three resulting Inhibition % values for each test sample divided by three.

The test system of test [3] is murine melanoma B16(F10) cells. Kind of test: Inhibition of UV-induced Melanogenesis test. Type of test: cell-based. The settings on record: 0.0001%; average of S1 and S2.
Setting [4] is: 0.5% topically daily for eight days.

On to “1-hydroxyl 3,5-bis(4′hydroxyl styryl)benzene - Piperazine salt”, for which the figures for the “Percent Inhibition of Tyrosinase activity (mean ± standard deviation)” value in the test on Mushroom tyrosinase (0.0001% w/v test compound), in the test with Mushroom tyrosinase (0.001% w/v test compound) and in the test on Mushroom tyrosinase (0.01% w/v test compound) were 2.03 ± 3.94%, 11.52 ± 3.16% and 16.64 ± 2.76%, respectively. Also, the “Degree of Lightness (ΔL)” value in test [1] (0.1% topically daily for eight days) came to 1.46 ± 0.71; in test [1] (0.25% topically daily for eight days), 2.83 ± 0.41; in test [1] (setting [4]), 4.60 ± 0.61. Also, the “Percent inhibition of UV-induced melanogenesis (mean ± SD)” value in test [2] (0.00001% test compound) was 13.93 ± 11.33%; in test [2] (0.00005% test compound), 33.52 ± 1.54%; in test [2] (0.0001% test compound) it was 55.70 ± 4.44%.

With `Oc1ccc(/C=C/c2cc(O)cc(/C=C/c3ccc(O)cc3)c2)cc1` [1-Hydroxyl 3,5-bis(4′hydroxylstyryl)benzene], the figures for the “Percent Inhibition of Tyrosinase activity (mean ± standard deviation)” value in the test on Mushroom tyrosinase (0.0001% w/v test compound), with Mushroom tyrosinase (0.001% w/v test compound) and in the test on Mushroom tyrosinase (0.01% w/v test compound) were 3.3 ± 1.95%, 8.21 ± 1.27% and 11.84 ± 3.22%, respectively. Further, the “Degree of Lightness (ΔL)” value in test [1] (setting [4]) stood at 4.23 ± 0.64. The “Percent Inhibition for Test sample (Ave)” value in test [3] is on record as “Ave = (39.05 + 41.93)/2 = 40.49%”. Also, the “Percent inhibition of UV-induced melanogenesis (mean ± SD)” value in test [2] (0.00001% test compound) was determined as 18.93 ± 5.92%; in test [2] (0.00005% test compound) it was 33.27 ± 4.39%; in test [2] (0.0001% test compound), 40.49 ± 2.04%. Moreover, the “Induction value with Test sample” value in test [2] (0.0001%, single test samples S1, S2, Normalized Melanin minus untreated control 0.122, listed as 1-hydroxyl 3,5-bis(4′hydroxyl styryl)benzene—Free Phenol) is 0.19 − 0.122 = 0.068 and 0.187 − 0.122 = 0.065. For the same compound, the “Normalized Melanin value (melanin assay OD/protein assay OD)” value in test [2] (0.0001%, single test samples S1, S2, listed as 1-hydroxyl 3,5-bis(4′hydroxyl styryl)benzene—Free Phenol) is 0.19 (S1) and 0.187 (S2).

The record behind these values is patent publication US8758731B2, “Skin lightening by topical application of 1-hydroxyl 3,5-bis(4′hydroxyl styryl)benzene” (Johnson & Johnson Consumer Companies, Inc., priority 2012, dated 2014).
